Common to all, as to test: NCI anticancer screen, dose series, 48 h
Test [1] concerns DU-145 prostate.
The test system of test [2] is NCI/ADR-RES ovarian.
The subject of test [3] is MDA-MB-231 breast.
For test [4], the system named is MDA-MB-435.
Test [5] has as its system T-47D breast.

Several values for one entry are separate records, joined by “and”; a condition that tells them apart may be missing. Identical values can stand only once.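 Protocol summary: plate cells (96-well), add compound at 5 concentrations, incubate 48 h, interpolate endpoints linearly. Here, GI50 denotes the concentration required for 50% inhibition of growth. The concentration for full growth arrest is given as TGI.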

Consider `c1ccc(Cn2cnc3ccc(-c4nc(-c5ccc6c(c5)ncn6C5CCCCC5)cn5ccnc45)cc32)cc1`, for which, in test [1], the GI50 is 3040 nM and the TGI is 21 µM. In addition, in test [2], the GI50 is 1.98 µM and the TGI is 5.43 µM.
As for `OB1OCc2cc(/C=C/c3cccc(C(F)(F)F)c3)ccc21`, the GI50 was 554 nM in test [1]; 2620 nM in test [3]; 5290 nM in test [4]; 0.544 µM in test [2]; 425 nM in test [5]. The TGI in test [1] is 15.3 µM; in test [3], 11.1 µM; in test [4] it was above 100 µM; in test [2] it was 23.9 µM; in test [5], above 100 µM.
Turning to `CC(=O)N[C@H](C(=O)N[C@@H](CCCNC(=N)N)C(=O)N[C@@H](CCCCN)C(=O)N[C@@H](CCCNC(=N)N)C(=O)N[C@]1(C)CCCCCC/C=C\CCC[C@@](C)(C(=O)N[C@@H](CCCNC(=N)N)C(=O)N[C@@H](CCC(=O)O)C(=O)N[C@@H](CC(C)C)C(=O)N[C@H](C(=O)N[C@@H](CCC(=O)O)C(N)=O)C(C)C)NC(=O)[C@H](CCC(N)=O)NC(=O)[C@H](CC(C)C)NC(=O)[C@H](CC(C)C)NC(=O)[C@H](CCCNC(=N)N)NC(=O)[C@H](CCCNC(=N)N)NC(=O)[C@H](CC(C)C)NC1=O)C(C)C`, the GI50 was 1870 nM in test [1]; 3680 nM in test [3]; 1420 nM in test [4]; 6.82 µM in test [2]; 1030 nM in test [5]. Also, the TGI in test [1] is 7.44 µM; in test [3], above 50 µM; in test [4] it was 4.28 µM; in test [2] it was above 50 µM; in test [5], 2.31 µM.
With `CCC1=C[C@@H]2CN(C1)Cc1c([nH]c3ccccc13)[C@@](C(=O)OC)(c1cc3c(cc1OC)N(C)[C@H]1[C@@](O)(C(=O)OC)[C@H](OC(C)=O)[C@]4(CC)[C@@H]5C[C@@H]5CN5CC[C@]31[C@@H]54)C2`, the GI50 was below 5 nM in test [1]; < 5 nM and 33.5 nM in test [3]; 0.111 µM and 0.662 µM in test [2]. For the same molecule, the TGI in test [2] is 2.82 µM and 22.6 µM; in test [5], 11.5 µM and 23.9 µM.
Turning to `O=C1C(Cl)=C(Nc2ccccc2)C(=O)c2ccccc21`, the GI50 is 9340 nM in test [1], 1580 nM in test [3], 1800 nM in test [4] and 2.11 µM in test [2]. Also, the TGI in test [1] was found to be 22 µM; in test [3], 3.3 µM; in test [4] it was 3.27 µM; in test [2], 4.89 µM.
For the molecule `Cn1c2ccccc2c2c(=O)c3ccccc3[nH]c21`, the GI50 is 33200 nM in test [1], 87100 nM in test [3], 70200 nM in test [4] and 43.7 µM in test [2]. Besides, the TGI in test [1], in test [3], in test [4] and in test [2] was above 100 µM each time.
Regarding `CN(C)Cc1c[nH]c2c(NCCN)c3c(c(NCCN)c12)C(=O)c1ccccc1C3=O`, the GI50 in test [1] is 5550 nM; in test [3], 949 nM; in test [4], 1880 nM; in test [2] it was 21.8 µM; in test [5], 1820 nM. For the same molecule, the TGI in test [1] was 18.7 µM; in test [3], 2.86 µM; in test [4], 5.2 µM; in test [2] it was above 66.1 µM; in test [5], 14 µM.
For `NC(=O)c1cccc(Nc2nccc(Nc3cccc(F)c3)n2)c1`, the GI50 in test [1] is 8100 nM; in test [3], 17500 nM; in test [4] it was 6150 nM; in test [2], 8.75 µM; in test [5], 4380 nM. In addition, the TGI in test [1] is above 25 µM; in test [3], above 25 µM; in test [4] it was above 25 µM; in test [2], above 25 µM; in test [5], 16.5 µM.
Consider `C=C1CC2(OC1=O)C(=O)N(CCCN1C(=O)C3(CC(=C)C(=O)O3)c3ccccc31)c1ccccc12` (stereo unspecified), for which the GI50 in test [1] is 1730 nM; in test [3] it was 1650 nM; in test [4], 1840 nM; in test [2] it was 2.52 µM. The TGI was determined as 3.52 µM in test [1], 3.43 µM in test [3], 4.2 µM in test [4] and 9.44 µM in test [2].
As for `CCN(CC)CCNC(=O)c1c(C)[nH]c(/C=C2\C(=O)Nc3ccc(F)cc32)c1C`, the GI50 was 3730 nM and 2830 nM and 2190 nM in test [1]; 7200 nM and 3260 nM and 3520 nM in test [3]; 2800 nM and 1630 nM and 1780 nM in test [4]; > 10 µM and 4.48 µM and 5.31 µM in test [2]; > 10000 nM and > 20000 nM and 15900 nM in test [5]. The TGI in test [1] is > 10 µM and 20 µM and 15.5 µM; in test [3], > 10 µM and 6.68 µM and 14.5 µM; in test [4], > 10 µM and 5.1 µM and 8.49 µM; in test [2], > 10 µM and 13.4 µM and 17.9 µM; in test [5], > 10 µM and > 20 µM and 35.3 µM.
In the case of `O=S(=O)(CCOCc1ccc(-c2ccc3ncnc(Nc4ccc(OCc5cccc(F)c5)c(Cl)c4)c3c2)o1)c1ccccc1`, the GI50 in test [1] is above 25000 nM; in test [3] it was above 25000 nM; in test [4], above 25000 nM; in test [2], above 25 µM; in test [5] it was above 6730 nM. Moreover, the TGI in test [1], in test [3], in test [4], in test [2] and in test [5] was above 25 µM each time.
Take `CCCCCCCCCCCC[n+]1ccccc1` (tested in a mixture with another compound): the GI50 in test [1] was 1500 nM; in test [3] it was 1220 nM; in test [4], 678 nM; in test [2] it was 14.4 µM; in test [5], 375 nM. The TGI was 9.88 µM in test [1]; 3.37 µM in test [3]; 2.47 µM in test [4]; 52.2 µM in test [2]; 3.94 µM in test [5].
In the case of `CCC(=C(c1ccc(OCCCN(C)C)cc1)c1ccc(OCCCN(C)C)cc1)c1ccc(Cl)cc1`, the GI50 is 1010 nM in test [1]; 413 nM in test [3]; 292 nM in test [4]; 1.95 µM in test [2]; 860 nM in test [5]. The TGI in test [1] was determined as 3.16 µM; in test [3], 1.07 µM; in test [4], 0.556 µM; in test [2], 4.14 µM; in test [5], 3.16 µM.
For the molecule `Cc1cc(Nc2nc(SCc3ccc(C(=O)Nc4ccc(F)cc4N)cc3)nn3cccc23)n[nH]1`, the GI50 was 461 nM in test [1], 854 nM in test [3], 1.98 µM in test [2] and 1120 nM in test [5]. Further, the TGI is above 100 µM in test [1], above 100 µM in test [3], above 100 µM in test [2] and 52.6 µM in test [5].
